What was measured:
Type in all cases: cell-based
Sp2/0 cells = test: Growth of Sp2/0 cells in transferrin-free CD Hybridoma medium with metal binding compounds; conditions: third passage
Procedure: The ability of iron metal binding compounds to support cellular growth in the absence of transferrin was evaluated using Sp2/0 cells maintained in CD Hybridoma medium (Life Technologies, Rockville, Md.). Stock cultures containing 5 μg/mL human holo-transferrin were prepared in CD Hybridoma medium. For metal binding compound evaluation, Sp2/0 cells were established at an initial viable cell density of 0.5×10^5 cells/mL in stationary culture using 75 cm^2 tissue culture flasks in a final volume of 20 mL. All cultures were maintained at 37° C. in humidified air containing 8% CO2. To eliminate transferrin carry-over effects, cells were subcultured at the same seeding density at 4 day intervals for a total of three passages. Positive control cultures contained 5 μg/mL human holotransferrin while negative control cultures were established in the absence of either transferrin or metal binding compound. Metal binding compound stocks were prepared at 0.1M-0.2M in ddH2O and solubilized when necessary using 5N NaOH or HCl. Iron complexes were established using 0.2M metal binding compound and iron stocks mixed 1:1 (v/v) and incubated for 5-10 minutes at 22° C. All solutions containing metal binding compounds were filter sterilized using a 0.22 μm Millex-GV filter prior to addition to transferrin and serum-free media.
(§1) In most cases, metal binding compounds were evaluated either alone or in combination with ferric chloride or ferrous sulfate at 25 μM, 50 μM and 100 μM. Values in the table represent the mean percentage of control growth for duplicate cultures determined at the third passage.
(§2) When added to the medium formulation un-complexed, the metal binding compound is listed alone, when added as a complex with a transition metal, the source of the transition metal is listed with the metal binding compound.

293 cells = test: Growth of 293 cells in transferrin-free 293 SFM with metal binding compounds; conditions: third passage
Procedure: Semi-confluent adherent cultures of 293 Cells (ATCC, CRL 1573) are readily adapted to suspension culture. The cells are first detached with a solution of Trypsin-EDTA (0.05% Trypsin, 0.53 mM Na4EDTA), and then resuspended in conventional medium supplemented with 10% FBS to inhibit the trypsin. The resuspended cells are centrifuged at 200×g for five minutes. The cell pellet is resuspended in 293 SFM (available from Life Technologies, Rockville, Md.) the formulation of which is described in WO 98/08934 which is specifically incorporated herein by reference. Alternatively, the cells may be detached with Versene (Na4EDTA, 0.53 mM) and resuspended in 293 SFM.
The initial seeding density of the 293 cells after conversion to suspension culture is 1×10^6 cells/mL. The cells are shaken on a rotary shaker at 150 rpm in a 37° C. incubator equilibrated with 8% CO2-92% air. When the cells reach a density of 1.5×10^6 cells/mL they are diluted with 293 SFM to a density of 3.0×10^5 cells/mL. Because 293 cells have a tendency to aggregate, the cells may be vortexed vigorously for approximately 45 seconds to obtain a predominantly single cell suspension at the time of passaging and counting. After several passages in suspension culture, the maximum achievable density may be determined.
The ability of metal binding compounds to support cellular growth was evaluated using 293 cells maintained in 293 SFM (Life Technologies, Rockville, Md.) without transferrin or metal binding compound. Stock cultures containing 5 μg/mL human holo-transferrin were prepared in 293 SFM. For metal binding compound evaluation, 293 cells were established in 125 mL shaker flasks at an initial viable seeding density of 2×10^5 cells/mL in a final volume of 20 mL. All cultures were maintained at 37° C. in humidified air containing 8% CO2. To eliminate transferrin carry-over effects, cells were subcultured at 4 day intervals for a total of three passages. At each subculturing, cells were seeded at a density of 2×10^5 cells/mL. Positive control cultures contained 5 μg/mL human holo-transferrin while negative control cultures were established in the absence of either transferrin or metal binding compound. Metal binding compound stocks were prepared at 0.1M-0.2M in ddH2O and solubilized when necessary using 5N NaOH or HCl. Iron complexes were established using 0.2M metal binding compound and iron stocks mixed 1:1 (v/v) and incubated for 5-10 minutes at 22° C. All solutions containing metal binding compounds were filter sterilized using a 0.22 μm Millex-GV filter prior to addition to transferrin and serum-free media.
as §1, with “μM. When used in combination, the metal binding compounds were used in equimolar concentration with iron ions.” for “μM.”
as §2

CHO cells = test: Growth of CHO cells in transferrin-free CD CHO medium with metal binding compounds; conditions: third passage, control = 5 μg/mL human holo-transferrin, duplicate cultures
Procedure: The ability of metal binding compounds to support cellular growth in the absence of transferrin was evaluated using CHO cells maintained in CD CHO medium (Life Technologies, Rockville, Md., the formulation of which is described in WO 98/08934). Stock cultures containing 5 μg/mL human holo-transferrin were prepared in CD CHO medium. For metal binding compound evaluation, CHO cells were established in 125 mL shaker flasks at an initial viable seeding density of 1×10^5 cells/mL in a final volume of 20 mL. All cultures were maintained at 37° C. in humidified air containing 8% CO2. To eliminate transferrin carry-over effects, cells were subcultured at 4 day intervals for a total of three passages. Positive control cultures contained 5 μg/mL human holo-transferrin while negative control cultures were established in the absence of either transferrin or metal binding compound. Metal binding compound stocks were prepared at 0.1M-0.2M in ddH2O and solubilized when necessary using 5N NaOH or HCl. Iron complexes were established using 0.2M metal binding compound and iron stocks mixed 1:1 (v/v) and incubated for 5-10 minutes at 22° C. All solutions containing metal binding compounds were filter sterilized using a 0.22 μm Millex-GV filter prior to addition to transferrin and serum-free media.
as §1
as §2, with “The ability of various metal binding compounds to substitute for transferrin in the culture of CHO cells was determined. When” for “When”

[1] = 25 μM, control = 5 μg/mL human holo-transferrin, duplicate cultures
[2] = 50 μM, control = 5 μg/mL human holo-transferrin, duplicate cultures
[3] = 100 μM, control = 5 μg/mL human holo-transferrin, duplicate cultures

Compound	mean percentage of control growth (Sp2/0 cells; [1])	mean percentage of control growth (Sp2/0 cells; [2])	mean percentage of control growth (Sp2/0 cells; [3])	mean percentage of control growth (293 cells; [1])	mean percentage of control growth (293 cells; [2])	mean percentage of control growth (293 cells; [3])	further results
O=C(O)CN(CC(=O)O)CC(=O)O [Nitriloacetic Acid]	0%	0%	0%				
O=C(O)CN(CC(=O)O)CC(=O)O.O=S(=O)([O-])[O-].[Fe+2] [Nitriloacetic Acid · Ferrous Sulfate]				75%	95%	0%	
NC(Cn1ccc(=O)c(O)c1)C(=O)O.[Cl][Fe]([Cl])[Cl] (stereo not drawn) [Mimosine · Ferric Chloride]				64%	55%	80%	
O=C(O)c1ccccn1.O=S(=O)([O-])[O-].[Fe+2] [2-Pyridinecarboxylic Acid · Ferrous Sulfate]				67%	48%	0%	
O=C(O)CN(CCN(CC(=O)O)CC(=O)O)CCN(CC(=O)O)CC(=O)O.[Cl][Fe]([Cl])[Cl] [Diethylenetriamine Penta-Acetic Acid · Ferric Chloride]				79%	96%	102%	
Cc1occc(=O)c1O [3-Hydroxy-2-Methyl-4-Pyrone (Maltol), 3-Hydroxy-2-Methyl-4-Pyrone]	0%	0%	0%	0%	28%	81%	
O=C(O)c1cccc(O)c1O.[Cl][Fe]([Cl])[Cl] [2,3-Dihydrobenzoic Acid · Ferric Chloride]							mean percentage of control growth (CHO cells; 25 μM): 71%; mean percentage of control growth (CHO cells; 50 μM): 0%; mean percentage of control growth (CHO cells; 100 μM): 0%
OC1C(O)C(O)C(O)C(O)C1O.[Cl][Fe]([Cl])[Cl] (stereo not drawn) [Myo-Inositol · Ferric Chloride]				79%	87%	85%	
C1COCCN1.[Cl][Fe]([Cl])[Cl] [Morpholine · Ferric Chloride]	54%	64%	81%				
NC(=O)CC(N)C(=O)O.[Cl][Fe]([Cl])[Cl] (stereo not drawn) [Asparagine · Ferric Chloride]	36%	51%	54%				
O=S(=O)([O-])[O-].OC[C@@H](O)[C@@H](O)[C@H](O)[C@@H](O)CO.[Fe+2] [Sorbitol · Ferrous Sulfate]				58%	69%	83%	
NC(CCC(=O)O)C(=O)O.[Cl][Fe]([Cl])[Cl] (stereo not drawn) [Glutamic Acid · Ferric Chloride]				102%	68%	83%	
[Cl][Fe]([Cl])[Cl].c1ccc(-c2ccccn2)nc1 [2,2-Dipyridyl · Ferric Chloride]				51%	96%	0%	
CC(=O)N[C@@H](CS)C(=O)O.[Cl][Fe]([Cl])[Cl] [N-Acetyl-Cysteine · Ferric Chloride]				88%	82%	52%	
O=S(=O)([O-])[O-].[Fe+2].[O-][n+]1cccc(O)c1 [3-Hydroxypyridine-N-Oxide · Ferrous Sulfate]				104%	58%	0%	
NCC(=O)O.[Cl][Fe]([Cl])[Cl] [Glycine · Ferric Chloride]	34%	61%	56%	81%	71%	72%	
O=[N+]([O-])c1ncccc1O.[Cl][Fe]([Cl])[Cl] [3-Hydroxy-2-Nitropyridine · Ferric Chloride]	52%	62%	72%				
CC(=O)NO.[Cl][Fe]([Cl])[Cl] [Acetohydroxamic Acid · Ferric Chloride]				83%	22%	0%	mean percentage of control growth (Sp2/0 cells; 5 μM, control = holo-transferrin): 40%; mean percentage of control growth (Sp2/0 cells; 10 μM, control = holo-transferrin): 48%; mean percentage of control growth (Sp2/0 cells; 20 μM, control = holo-transferrin): 47%
Cc1occc(=O)c1O.[Cl][Fe]([Cl])[Cl] [3-Hydroxy-2-Methyl-4-Pyrone · Ferric Chloride]	60%	71%	75%				
NCCCCC(N)C(=O)O.[Cl][Fe]([Cl])[Cl] (stereo not drawn) [Lysine · Ferric Chloride]							mean percentage of control growth (CHO cells; 25 μM): 51%; mean percentage of control growth (CHO cells; 50 μM): 79%; mean percentage of control growth (CHO cells; 100 μM): 98%
[O-][n+]1cccc(O)c1 [3-Hydroxypyridine-N-Oxide]				4%	4%	4%	
O=C(O)c1cccnc1O.[Cl][Fe]([Cl])[Cl] [2-Hydroxynicotinic Acid · Ferric Chloride]	64%	82%	85%				mean percentage of control growth (293 cells; 100 μM (row note: 293 tested at 100, 150, 200 μM; first column)): 0%; mean percentage of control growth (293 cells; 150 μM (row note: 293 tested at 100, 150, 200 μM; second column)): 0%; mean percentage of control growth (293 cells; 200 μM (row note: 293 tested at 100, 150, 200 μM; third column)): 99%

Reference: patent US6767741B1, “Metal binding compounds and their use in cell culture medium compositions” (Invitrogen Corporation, priority 1999, dated 2004)
